One data set deals with AAD. The conditions noted are these: low-dose; cited from earlier work.
The next data set has as its system schizoaffective disorder. The conditions noted are these: cited from earlier work.
Data set [1] in a line: precipitation of lithium hydroxide from solution at different pH. The class given is physicochemical. The text has this:
L-threonic acid was selected as the ligand for lithium ion, because L-threonic acid can accelerate the absorption of the ion.

For data set [2] the following is noted: stability in high thermal condition.

Bounds are passed on as bounds.

For `O=C([O-])[O-].[Li+].[Li+]` [lithium carbonate], in the data set with AAD, the “efficacy in treating agitation” value is “not efficacious” and the global clinical improvement entry was “associated with global clinical improvement”.

With `NC(=O)N1c2ccccc2C=Cc2ccccc21` [carbamazepine], in the data set with schizoaffective disorder, the “prophylactic efficacy in maintenance treatment” value is on record as “equipotent alternatives”.

On to `O=C([O-])[C@H](O)[C@@H](O)CO.[Li+]` [lithium L-threonate], for which the “precipitate of lithium hydroxide” value in data set [1] (basic condition) and in data set [1] (small intestine (pH˜7)) was “no precipitate of lithium hydroxide” in each case. Moreover, the “dissolution in alcohol and ether” value (alcohol and ether) is “no dissolution in alcohol and ether”. Further, for the setting “water”, the dissolution in water result is “dissolution in water”. In data set [2], this compound gave a temperature of decomposition above 300 °C.
